Experimental data as given in PMC9400670, “Establishing the selective phospholipid membrane coordination, permeation and lysis properties for a series of ‘druggable’ supramolecular self-associating antimicrobial amphiphiles” (Chemical Science, 2022).
Read-outs that look alike come from different tables or passages of the source.

Assays:
E. coli DH10B = assay: MIC50 determination and initial screening from OD600 growth curves, E. coli DH10B; type: cell-based, Escherichia coli; conditions: for MIC50 / inhibition at 3300 µM: Escherichia coli, 15 h; for MIC50: E. coli DH10B; for inhibition at 3300 µM: DH10B, 3.3 mM, read-out: initial antimicrobial screening, inhibition of growth, E. coli
Description: The antimicrobial activity of SSAs 1–14 was established against both a model Gram-positive, clinically relevant methicillin resistant Staphylococcus aureus (MRSA), and a model Gram-negative, E. coli bacteria, Table 1. Here MIC50 values are given in mM to enable the derivation of molecular structure: antimicrobial efficacy: physical property relationships. […]
Data were acquired in endpoint mode. […]
Section 3: Microbial Methods
These methods were taken directly from UK Health and Security Office (UKHSA) standard operating […]
Preparation of Luria Broth media (LB): Yeast extract (5 g), tryptone (10 g) and sodium chloride (10 g) were dissolved in dH₂O (1 L) then divided into bottles and autoclaved.
Preparation of Luria Broth (LB) agar plates: Agar (6 g) was added to LB (400 mL) and autoclaved. Once cool, the LB agar was poured into sterile petri dishes under sterile conditions and allowed to set. LB plates were stored at 4 °C until use.
Preparation of bacterial plates: Sterile LB agar plates were streaked using Escherichia coli DH10B or USA300 Methicillin-Resistant Staphylococcus aureus then incubated at 37 °C overnight.
Preparation of Inoculum: An initial culture was made up by inoculating LB media (5 mL) with a single colony of bacteria under sterile conditions and incubated at 37 °C with shaking overnight. The following day, overnight bacterial cultures were subcultured into fresh LB medium to a starting OD600 […]
Preparation of 96 well microplate for screening: 20 mM solutions of each compound to be tested were made up using 5 % ethanol. The 1:100 cell suspension (150 µL) was pipetted into the wells and SSA compound solutions (30 µL) were added into each well. The final screening concentration for each compound was 3.3 mM in the well. These were incubated for 20 hours in a plate reader, with optical density readings being taken at 600 nm every 15 minutes. Optical density readings were plotted against time to produce growth curves. […]
individual wells under sterile conditions. Compounds (30 µL) were added to the wells to equal a total volume of 180 µL in the wells. Six repeats of each concentration for each compound were created each plate. The plates were sealed using parafilm, then incubated at 37°C in a microplate reader for 18-25 hours. Optical density readings were taken at 600 nm every 15 min. Data was used to generate […]
Calculation of MIC50: Growth curves were plotted using OD600 optical density readings in Microsoft ® Excel ® 2013. OD600 optical density readings 900 minutes from the start of each of these growth cultures for each concentration of compound were plotted in Origin ® 2015. The resultant curve was normalized and fitted using the Boltzmann fit to define the MIC50 values for each compound.

PE:PG mix nanodiscs = assay: Phospholipid nanodisc 1H NMR CPMG coordination assay, PE:PG mix nanodiscs; type: binding; conditions: SSA 100 µM
Description: Finally, to establish how any single SSA structural variation affects the coordination of an individual salt component to the surface of a phospholipid membrane, the binding of the anionic and cationic components of SSAs 5–12 with nanodiscs comprised of PC, PG or the PE : PG mix (Table 2) was studied. Nanodiscs were synthesised from synthetic vesicles of the relevant phospholipid composition. For full synthetic procedures and nanodisc characterisation please see ESI (Section 13). ^†[34,35]
Styrene-maleic acid (SMA) nanodiscs are small biomimetic scaffolds with a hydrodynamic diameter ≈ 10 nm. They consist of a single disc-shaped planar phospholipid bilayer, ‘belted’ in this instance with a synthetic SMA co-polymer. Here nanodiscs of a specific phospholipid composition were titrated against a solution of SSAs 5–12 (0.10 mM) in a sodium phosphate buffer (20 mM) with NaCl (20 mM) at pH 7.4. This solution was supplemented with 5% D2O, to enable NMR locking and 4,4-dimethyl4-silapentane-1-sulfonic acid (DSS – 0.02 mM) to act as an internal standard. The nanodiscs were then titrated against the SSA, while the SSA concentration was maintained as constant, well below the CMC (Table 3).[38] A 1D ^1H NMR with a Carr–Purcell–Meiboom–Gill sequence (CPMG) filter (300 ms),[36,48] modified with a watergate element was then obtained for each experimental data point. The watergate element was used to allow suppression of the water signal, whereas the CPMG filter enabled the suppression of those resonances from molecular species with long correlation times, which in this instance correlate to the signals of those SSAs coordinated to the nanodisc, rather than those which exist as free species in solution. Comparative integration of the resonances corresponding to the SSA cation or anion, standardised against the DSS internal standard, permits the percentage of the individual SSA components coordinated to the phospholipid nanodisc to be established with respect to increasing nanodisc concentration.
However, when considering the 1/EC50 for the SSA cationic component (Fig. 10b), the reverse is true. This is perhaps expected, but nevertheless despite the identical experimental conditions, including the same TBA counter cation across SSAs 5–12, there is a marked difference in the 1/EC50 obtained, where the only difference is the SSA anion present. This is most noticeable for the series of SSA titrations involving the PE : PG mix (Table 2) nanodiscs. The only variation within this set of titrations is the structure of the SSA anion; we therefore conclude that the SSA anion is influencing SSA cation nanodisc coordination events. This observation provides evidence for the presence of further complex interactions informing SSA:nanodisc coordination processes. […]
Data were acquired in endpoint mode. All experiments were repeated in triplicate […]
Nanodisc preparation: Lipid films were resuspended in Buffer (20 mM NaCl, 20 mM NaH 2PO4, pH 7.4) and sonicated for 1 hour, at a 5:1 ratio, SMA was added and incubated at 37 °C for 1 hour. Dialysed overnight in 5 L of the same buffer in 10 KDa cut-off dialysis tubing, concentrated, and underwent gel filtration size exclusion chromatography on a Superdex 200 10/300 GL column (GE Healthcare) in the same buffer, whilst monitoring absorbance at 260 nm. Nanodisc quantification carried out via monitoring of absorbance at 260 nm using a calibration curve.2
1H NMR CPMG: 1H NMR CPMG3,4 spectra were obtained with a Bruker Avance III […] spectrometer equipped with a TCIP cryoprobe at 298 K. Samples were supplemented with 5 % D 2O and 0.02 mM 4,4-dimethyl4-silapentane-1-sulfonic acid (DSS). The standard zgprcpmg pulse sequence from the Bruker library was modified with a watergate element to allow suppressi on of the water signal and was used for all experiments. Although this sequence is readily obtainable, we are happy to provide it on request. The P1 pulses were 9 µs at a power of 7.9 W. Presaturation was applied between […]

[1] = Table S3, conversion of the mM values of Table 1, after 900 mins
[2] = concentration of nanodisc coordinating 50 % of the SSA anion, Hill Plot fit, Vmax fixed 100 %, read-out: EC50 PE:PG mix, anionic SSA component
[3] = concentration of nanodisc coordinating 50 % of the SSA cation, Hill Plot fit, Vmax fixed 100 %, read-out: EC50 PE:PG mix, cationic SSA component
[4] = n = 3, 0.5 McFarland standard, after 900 min, number in bracket = efficacy rank

Structure (SMILES)	MIC50 (E. coli DH10B; [1]) [µg/mL]	EC50 (PE:PG mix nanodiscs; [2]) [nM]	EC50 (PE:PG mix nanodiscs; [3]) [nM]	EC50 (PE:PG mix nanodiscs; experimental endpoint 4.00 µM nanodisc, read-out: EC50 PE:PG mix, cationic SSA component) [nM]	inhibition at 3300 µM (E. coli DH10B; after 900 min) [%]	initial antimicrobial screening outcome, E. coli (E. coli DH10B; Table S3, screening at 3.3 mM)	MIC50 (E. coli DH10B; [4]) [µM]
O=C(NCS(=O)(=O)O)Nc1ccc(C(F)(F)F)cc1 [SSA 1]	2080	–	–	–	–	–	–
O=C(NCCCS(=O)(=O)O)Nc1ccc(C(F)(F)F)cc1 [SSA 2]	840	–	–	–	–	–	–
O=C(O)CNC(=O)Nc1ccc(C(F)(F)F)cc1 [SSA 4]	630	–	–	–	–	–	–
O=C(NCS(=O)(=O)O)Nc1ccccc1-c1nc2ccccc2s1 [SSA 5]	2160	1140	930	–	–	–	–
Cc1ccc2nc(-c3ccc(NC(=O)NCS(=O)(=O)O)cc3)sc2c1 [SSA 6]	3110	460	–	> 4000	–	–	–
Cc1ccc2nc(NC(=O)NCS(=O)(=O)O)sc2c1 [SSA 7]	–	–	3440	–	< 10	Fail	–
O=C(NCS(=O)(=O)O)Nc1ccc(-c2nc3ccccc3s2)cc1 [SSA 8]	2210	2200	–	–	–	–	3660
Cc1ccc2nc(-c3ccc(NC(=O)NCCC(=O)O)cc3)sc2c1 [SSA 9]	1370	730	–	–	–	–	2160
Cc1ccc2nc(-c3ccc(NC(=O)NCCCS(=O)(=O)O)cc3)sc2c1 [SSA 10]	750	500	2920	–	–	–	1160
Cc1ccc2nc(-c3ccc(NC(=O)NCC(=O)O)cc3)sc2c1 [SSA 11]	–	720	2510	–	–	–	–
Cc1ccc2nc(-c3ccc(NC(=S)NCS(=O)(=O)O)cc3)sc2c1 [SSA 12]	–	260	370	–	< 10	–	–
